Where two headings read alike, the source gives them in different places.
Assays:
Assay in all cases: HotSpot kinase profiling
Format in all cases: biochemical
PKAcb = target: T1, PKAcb (Homo sapiens, UniProt P22694)
T1 construct: purchased Reaction Biology Corp
Procedure, shortened: (§1)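 Radio-isotope P81 filtration format. Substrate + required cofactors in reaction buffer, kinase added, 2 h RT. Stop, wash with 0.1% phosphoric acid, detect. % inhibition vs DMSO; mean of duplicates where repeated.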

STK32C/YANK3 = target: T2, STK32C/YANK3 (Homo sapiens, UniProt Q86UX6)
T2 construct: purchased Reaction Biology Corp
T2 sequence (Q86UX6 whole entry): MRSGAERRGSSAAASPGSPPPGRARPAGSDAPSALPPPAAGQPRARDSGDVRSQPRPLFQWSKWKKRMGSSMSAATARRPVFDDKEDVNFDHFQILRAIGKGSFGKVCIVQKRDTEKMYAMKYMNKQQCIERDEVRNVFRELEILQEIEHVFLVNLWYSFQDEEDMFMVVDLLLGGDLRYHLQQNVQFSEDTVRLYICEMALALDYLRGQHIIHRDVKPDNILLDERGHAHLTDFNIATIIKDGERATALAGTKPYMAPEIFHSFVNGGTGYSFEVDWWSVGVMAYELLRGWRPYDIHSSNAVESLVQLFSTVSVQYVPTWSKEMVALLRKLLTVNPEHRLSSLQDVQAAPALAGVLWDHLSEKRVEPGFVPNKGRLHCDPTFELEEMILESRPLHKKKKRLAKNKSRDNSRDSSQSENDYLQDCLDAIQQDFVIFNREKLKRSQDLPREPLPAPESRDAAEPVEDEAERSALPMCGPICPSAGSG
Procedure, shortened: as §1

ALK = target: T3, ALK (Homo sapiens, UniProt Q9UM73)
T3 construct: purchased Reaction Biology Corp
Procedure, shortened: as §1

P70S6Kb/RPS6KB2 = target: T4, P70S6Kb/RPS6KB2 (Homo sapiens, UniProt Q9UBS0)
T4 construct: purchased Reaction Biology Corp
T4 sequence (Q9UBS0 whole entry): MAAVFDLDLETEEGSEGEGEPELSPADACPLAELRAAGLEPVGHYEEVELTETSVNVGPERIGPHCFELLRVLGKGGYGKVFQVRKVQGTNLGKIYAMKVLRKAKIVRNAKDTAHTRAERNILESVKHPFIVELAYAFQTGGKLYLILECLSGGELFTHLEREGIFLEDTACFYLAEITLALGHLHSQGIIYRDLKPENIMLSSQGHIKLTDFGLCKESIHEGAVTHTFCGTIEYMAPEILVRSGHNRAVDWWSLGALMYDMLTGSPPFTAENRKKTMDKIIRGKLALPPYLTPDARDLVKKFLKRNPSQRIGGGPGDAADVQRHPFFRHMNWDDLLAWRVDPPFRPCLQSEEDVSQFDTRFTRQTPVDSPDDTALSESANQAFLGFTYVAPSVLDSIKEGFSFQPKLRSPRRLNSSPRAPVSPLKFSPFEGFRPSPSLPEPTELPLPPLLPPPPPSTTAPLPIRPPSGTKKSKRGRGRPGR
Procedure, shortened: as §1

MLK1/MAP3K9 = target: T5, MLK1/MAP3K9 (Homo sapiens, UniProt P80192)
T5 construct: purchased Reaction Biology Corp
Procedure, shortened: as §1

WNK3 = target: T6, WNK3 (Homo sapiens, UniProt Q9BYP7)
T6 construct: purchased Reaction Biology Corp
T6 sequence (Q9BYP7 whole entry): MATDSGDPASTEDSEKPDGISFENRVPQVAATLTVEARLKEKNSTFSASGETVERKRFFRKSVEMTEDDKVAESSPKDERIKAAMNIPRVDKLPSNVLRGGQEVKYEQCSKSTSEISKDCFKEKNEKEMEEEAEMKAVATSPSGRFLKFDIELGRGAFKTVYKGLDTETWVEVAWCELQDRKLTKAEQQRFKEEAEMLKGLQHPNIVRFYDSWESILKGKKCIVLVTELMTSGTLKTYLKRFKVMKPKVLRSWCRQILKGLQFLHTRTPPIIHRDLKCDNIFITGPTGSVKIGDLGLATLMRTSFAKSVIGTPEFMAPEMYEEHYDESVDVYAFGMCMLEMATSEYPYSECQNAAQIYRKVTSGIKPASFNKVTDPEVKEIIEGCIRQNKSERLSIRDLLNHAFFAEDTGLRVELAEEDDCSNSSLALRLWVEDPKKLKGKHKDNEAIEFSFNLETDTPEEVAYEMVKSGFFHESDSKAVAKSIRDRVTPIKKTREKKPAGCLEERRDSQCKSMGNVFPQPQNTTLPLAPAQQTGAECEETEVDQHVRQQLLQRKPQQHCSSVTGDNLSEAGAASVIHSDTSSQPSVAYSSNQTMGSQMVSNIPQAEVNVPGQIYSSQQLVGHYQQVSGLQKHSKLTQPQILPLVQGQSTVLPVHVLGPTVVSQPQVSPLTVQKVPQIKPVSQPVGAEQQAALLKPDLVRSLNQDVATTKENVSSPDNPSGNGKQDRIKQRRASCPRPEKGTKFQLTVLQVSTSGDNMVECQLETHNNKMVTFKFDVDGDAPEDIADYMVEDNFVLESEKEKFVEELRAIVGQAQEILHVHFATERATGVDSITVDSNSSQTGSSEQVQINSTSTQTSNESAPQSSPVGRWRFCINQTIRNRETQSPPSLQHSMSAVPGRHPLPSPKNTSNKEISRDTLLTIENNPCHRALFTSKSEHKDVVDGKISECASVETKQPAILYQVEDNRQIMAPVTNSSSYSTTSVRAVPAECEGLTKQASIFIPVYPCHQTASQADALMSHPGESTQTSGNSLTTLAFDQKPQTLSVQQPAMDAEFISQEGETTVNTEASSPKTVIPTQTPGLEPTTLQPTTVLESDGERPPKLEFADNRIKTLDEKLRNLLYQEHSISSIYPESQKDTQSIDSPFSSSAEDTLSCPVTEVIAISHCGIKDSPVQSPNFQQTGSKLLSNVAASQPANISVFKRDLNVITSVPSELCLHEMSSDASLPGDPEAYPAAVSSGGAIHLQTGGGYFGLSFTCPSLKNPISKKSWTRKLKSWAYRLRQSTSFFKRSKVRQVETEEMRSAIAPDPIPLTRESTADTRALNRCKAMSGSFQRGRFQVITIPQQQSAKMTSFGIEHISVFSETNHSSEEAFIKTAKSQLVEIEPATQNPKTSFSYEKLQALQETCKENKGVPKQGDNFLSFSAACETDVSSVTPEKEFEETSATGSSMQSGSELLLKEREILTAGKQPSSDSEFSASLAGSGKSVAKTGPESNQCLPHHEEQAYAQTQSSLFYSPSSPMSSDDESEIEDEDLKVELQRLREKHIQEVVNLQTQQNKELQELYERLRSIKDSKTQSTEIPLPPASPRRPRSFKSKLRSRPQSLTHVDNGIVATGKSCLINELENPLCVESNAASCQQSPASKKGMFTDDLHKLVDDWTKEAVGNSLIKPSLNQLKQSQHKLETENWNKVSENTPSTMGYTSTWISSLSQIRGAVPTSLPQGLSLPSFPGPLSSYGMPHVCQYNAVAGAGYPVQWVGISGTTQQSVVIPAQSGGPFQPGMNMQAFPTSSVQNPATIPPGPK
Procedure, shortened: as §1

c-MET = target: T7, c-MET (Homo sapiens, UniProt P08581)
T7 construct: purchased Reaction Biology Corp
Procedure, shortened: as §1

RIPK2 = target: T8, RIPK2 (Homo sapiens, UniProt O43353)
T8 construct: purchased Reaction Biology Corp
T8 sequence (O43353 whole entry): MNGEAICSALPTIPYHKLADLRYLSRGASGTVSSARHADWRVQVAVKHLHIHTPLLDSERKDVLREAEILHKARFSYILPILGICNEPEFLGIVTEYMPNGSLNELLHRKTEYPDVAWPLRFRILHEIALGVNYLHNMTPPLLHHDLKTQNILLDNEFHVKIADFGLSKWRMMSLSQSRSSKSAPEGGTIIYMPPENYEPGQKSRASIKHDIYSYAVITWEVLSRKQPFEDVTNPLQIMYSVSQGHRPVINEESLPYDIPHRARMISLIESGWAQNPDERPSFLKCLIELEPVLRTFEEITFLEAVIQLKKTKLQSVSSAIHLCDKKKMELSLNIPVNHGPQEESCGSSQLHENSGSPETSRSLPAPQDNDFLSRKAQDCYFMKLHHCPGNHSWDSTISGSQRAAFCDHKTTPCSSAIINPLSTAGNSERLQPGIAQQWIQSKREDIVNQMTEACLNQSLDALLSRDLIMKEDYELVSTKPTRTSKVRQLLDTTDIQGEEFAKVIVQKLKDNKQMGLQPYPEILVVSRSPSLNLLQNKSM
Procedure, shortened: as §1

LATS1 = target: T9, LATS1 (Homo sapiens, UniProt O95835)
T9 construct: purchased Reaction Biology Corp
T9 sequence (O95835 1-1130): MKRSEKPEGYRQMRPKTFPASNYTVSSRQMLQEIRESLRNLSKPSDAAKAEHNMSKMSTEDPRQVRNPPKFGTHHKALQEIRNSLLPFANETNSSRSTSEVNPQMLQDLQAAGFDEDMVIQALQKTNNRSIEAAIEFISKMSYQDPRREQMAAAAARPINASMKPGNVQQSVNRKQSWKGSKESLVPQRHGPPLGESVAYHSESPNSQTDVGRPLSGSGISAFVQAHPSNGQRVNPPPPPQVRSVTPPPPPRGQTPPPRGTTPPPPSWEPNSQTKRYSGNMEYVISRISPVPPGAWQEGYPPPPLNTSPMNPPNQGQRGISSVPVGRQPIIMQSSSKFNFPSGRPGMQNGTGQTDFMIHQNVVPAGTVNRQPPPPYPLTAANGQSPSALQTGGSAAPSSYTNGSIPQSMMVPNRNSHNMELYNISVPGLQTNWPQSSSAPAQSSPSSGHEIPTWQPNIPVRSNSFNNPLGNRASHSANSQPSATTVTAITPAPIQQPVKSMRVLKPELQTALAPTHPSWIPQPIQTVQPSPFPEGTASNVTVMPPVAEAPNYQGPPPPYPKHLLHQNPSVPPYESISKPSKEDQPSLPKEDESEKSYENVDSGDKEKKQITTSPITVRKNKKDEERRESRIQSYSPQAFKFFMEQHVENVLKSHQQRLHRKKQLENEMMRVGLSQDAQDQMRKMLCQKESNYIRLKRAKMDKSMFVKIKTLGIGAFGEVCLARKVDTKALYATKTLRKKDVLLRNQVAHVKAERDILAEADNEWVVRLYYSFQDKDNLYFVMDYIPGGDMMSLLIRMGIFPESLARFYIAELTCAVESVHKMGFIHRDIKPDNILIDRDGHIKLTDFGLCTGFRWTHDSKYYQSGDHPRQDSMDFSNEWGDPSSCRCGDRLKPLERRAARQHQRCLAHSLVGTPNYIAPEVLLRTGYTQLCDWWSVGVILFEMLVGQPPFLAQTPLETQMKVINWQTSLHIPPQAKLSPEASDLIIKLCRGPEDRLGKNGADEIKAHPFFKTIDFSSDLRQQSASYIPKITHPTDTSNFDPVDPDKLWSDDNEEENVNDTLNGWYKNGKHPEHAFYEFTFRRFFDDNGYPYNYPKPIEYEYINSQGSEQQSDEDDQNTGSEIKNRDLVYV
Procedure, shortened: as §1

ALK2/ACVR1 = target: T10, ALK2/ACVR1 (Homo sapiens, UniProt Q04771)
T10 construct: purchased Reaction Biology Corp
Procedure, shortened: as §1

MELK = target: T11, MELK (Homo sapiens, UniProt Q14680)
T11 construct: purchased Reaction Biology Corp
Procedure, shortened: as §1

FGFR1 = target: T12, FGFR1 (Homo sapiens, UniProt P11362)
T12 construct: purchased Reaction Biology Corp
T12 sequence (P11362 22-822): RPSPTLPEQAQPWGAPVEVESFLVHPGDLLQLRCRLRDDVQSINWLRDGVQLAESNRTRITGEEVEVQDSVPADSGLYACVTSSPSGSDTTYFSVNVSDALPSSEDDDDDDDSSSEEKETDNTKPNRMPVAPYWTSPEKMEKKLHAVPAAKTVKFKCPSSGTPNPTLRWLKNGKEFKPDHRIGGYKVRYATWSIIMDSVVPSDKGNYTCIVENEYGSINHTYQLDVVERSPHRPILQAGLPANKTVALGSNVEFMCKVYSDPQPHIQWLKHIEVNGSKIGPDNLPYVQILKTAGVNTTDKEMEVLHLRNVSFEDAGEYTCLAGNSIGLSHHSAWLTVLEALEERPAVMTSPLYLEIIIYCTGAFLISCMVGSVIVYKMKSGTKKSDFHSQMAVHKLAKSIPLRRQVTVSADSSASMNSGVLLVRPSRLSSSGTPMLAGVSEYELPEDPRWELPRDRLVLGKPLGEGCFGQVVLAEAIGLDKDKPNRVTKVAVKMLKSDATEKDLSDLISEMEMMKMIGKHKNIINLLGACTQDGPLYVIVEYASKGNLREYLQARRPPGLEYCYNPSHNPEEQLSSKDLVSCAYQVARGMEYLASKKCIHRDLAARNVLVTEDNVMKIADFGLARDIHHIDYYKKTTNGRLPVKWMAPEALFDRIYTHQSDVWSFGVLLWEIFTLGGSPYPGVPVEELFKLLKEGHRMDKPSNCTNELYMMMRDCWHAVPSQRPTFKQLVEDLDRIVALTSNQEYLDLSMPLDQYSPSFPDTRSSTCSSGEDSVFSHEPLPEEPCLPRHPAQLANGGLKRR
Procedure, shortened: as §1

YES/YES1 = target: T13, YES/YES1 (Homo sapiens, UniProt P07947)
T13 construct: purchased Reaction Biology Corp
T13 sequence (P07947 whole entry): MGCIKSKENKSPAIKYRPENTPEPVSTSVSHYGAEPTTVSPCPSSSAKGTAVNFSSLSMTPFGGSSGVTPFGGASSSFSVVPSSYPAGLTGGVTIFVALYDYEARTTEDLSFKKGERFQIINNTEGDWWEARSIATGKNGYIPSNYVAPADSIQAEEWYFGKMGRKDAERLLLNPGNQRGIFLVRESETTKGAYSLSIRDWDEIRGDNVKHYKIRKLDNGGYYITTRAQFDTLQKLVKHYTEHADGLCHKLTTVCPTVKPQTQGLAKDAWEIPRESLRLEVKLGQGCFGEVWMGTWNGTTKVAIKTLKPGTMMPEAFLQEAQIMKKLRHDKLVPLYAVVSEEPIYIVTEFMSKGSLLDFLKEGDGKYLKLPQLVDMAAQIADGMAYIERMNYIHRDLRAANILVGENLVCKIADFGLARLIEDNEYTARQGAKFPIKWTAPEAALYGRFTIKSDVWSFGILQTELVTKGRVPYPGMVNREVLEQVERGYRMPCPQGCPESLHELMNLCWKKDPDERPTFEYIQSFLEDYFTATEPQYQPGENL
Procedure, shortened: as §1

[1] = read-out: % Enzyme Activity (relative to DMSO controls) Run 1
[2] = read-out: % Enzyme Activity (relative to DMSO controls) Run 2

**Q.** With C=CC(=O)Nc1cccc(Nc2nc(Nc3ccc(OCCOC)c(F)c3)ncc2F)c1 [Compound 2] as the molecule, how does the inhibition at 3 µM (PKAcb) read?
**A.** 49.6%

**Q.** And the remaining activity at 3 µM (PKAcb; [1])?
**A.** 49.7%

**Q.** And the remaining activity at 3 µM (PKAcb; [2])?
**A.** 51.1%

**Q.** And the inhibition at 3 µM (STK32C/YANK3)?
**A.** -6.01%

**Q.** What about the remaining activity at 3 µM (STK32C/YANK3; [1]) of the same molecule?
**A.** 105%

**Q.** And the remaining activity at 3 µM (STK32C/YANK3; [2])?
**A.** 107%

**Q.** And the inhibition at 3 µM (ALK)?
**A.** 16.9%

**Q.** And the remaining activity at 3 µM (ALK; [1])?
**A.** 82.5%

**Q.** What about the remaining activity at 3 µM (ALK; [2]) of the same molecule?
**A.** 83.6%

**Q.** And the inhibition at 3 µM (P70S6Kb/RPS6KB2)?
**A.** 4.15%

**Q.** What about the remaining activity at 3 µM (P70S6Kb/RPS6KB2; [1]) of the same molecule?
**A.** 95.6%

**Q.** And the remaining activity at 3 µM (P70S6Kb/RPS6KB2; [2])?
**A.** 96.1%

**Q.** What about the inhibition at 3 µM (MLK1/MAP3K9) of the same molecule?
**A.** 85.7%

**Q.** What about the remaining activity at 3 µM (MLK1/MAP3K9; [1]) of the same molecule?
**A.** 14.5%

**Q.** What about the remaining activity at 3 µM (MLK1/MAP3K9; [2]) of the same molecule?
**A.** 14.1%

**Q.** What about the inhibition at 3 µM (WNK3) of the same molecule?
**A.** 8.34%

**Q.** What about the remaining activity at 3 µM (WNK3; [1]) of the same molecule?
**A.** 91.3%

**Q.** What about the remaining activity at 3 µM (WNK3; [2]) of the same molecule?
**A.** 92%

**Q.** And the inhibition at 3 µM (c-MET)?
**A.** -1.49%

**Q.** What about the remaining activity at 3 µM (c-MET; [1]) of the same molecule?
**A.** 103%

**Q.** And the remaining activity at 3 µM (c-MET; [2])?
**A.** 100%

**Q.** What about the inhibition at 3 µM (RIPK2) of the same molecule?
**A.** 23.7%

**Q.** And the remaining activity at 3 µM (RIPK2; [1])?
**A.** 77.6%

**Q.** And the remaining activity at 3 µM (RIPK2; [2])?
**A.** 75%

**Q.** And the inhibition at 3 µM (LATS1)?
**A.** 10.3%

**Q.** And the remaining activity at 3 µM (LATS1; [1])?
**A.** 89.5%

**Q.** What about the remaining activity at 3 µM (LATS1; [2]) of the same molecule?
**A.** 89.8%

**Q.** What about the remaining activity at 3 µM (ALK2/ACVR1; [1]) of the same molecule?
**A.** 385%

**Q.** And the remaining activity at 3 µM (ALK2/ACVR1; [2])?
**A.** 385%

**Q.** And the inhibition at 3 µM (MELK)?
**A.** -8.07%

**Q.** What about the remaining activity at 3 µM (MELK; [1]) of the same molecule?
**A.** 109%

**Q.** And the remaining activity at 3 µM (MELK; [2])?
**A.** 107%

**Q.** And the inhibition at 3 µM (FGFR1)?
**A.** 59.7%

**Q.** And the remaining activity at 3 µM (FGFR1; [1])?
**A.** 41.4%

**Q.** What about the remaining activity at 3 µM (FGFR1; [2]) of the same molecule?
**A.** 39.3%

**Q.** And the inhibition at 3 µM (YES/YES1)?
**A.** 81.5%

**Q.** And the remaining activity at 3 µM (YES/YES1; [1])?
**A.** 18.7%

**Q.** What about the remaining activity at 3 µM (YES/YES1; [2]) of the same molecule?
**A.** 18.3%
